In US12589086B2, “Compositions and methods for the treatment of primary biliary cholangitis” (Genfit, priority 2020, dated 2026):

Tested on: patients with PBC
Test: phase II study of elafibranor for the treatment of PBC (serum ALP, 12 weeks)
Assay type: in vivo, human
Details: for treatment effect estimate vs placebo, relative change in serum ALP (supportive analysis): ANCOVA with baseline ALP as covariate; for treatment effect estimate vs placebo, relative change in serum ALP (primary efficacy analysis): non-parametric randomization-based ANCOVA with baseline ALP as covariate, p<0.001; for mean relative change (%) from baseline to Endpoint in serum ALP: placebo 3.2%
Experimental: Elafibranor (2-(2,6-dimethyl-4-{3 [4-(methylsulfanyl)phenyl]-3-oxopropen-1-yl}phenoxy)-2-methylpropanoic acid) is a drug currently tested in a pivotal phase III study for the treatment of PBC. Elafibranor was also evaluated in a phase II study for the treatment of PBC. […] Elafibranor (2-(2,6-dimethyl-4-{3-[4-(methylsulfanyl)phenyl]-3-oxopropen-1-yl}phenoxy)-2-methylpropanoic acid) was supplied as 80 mg white to offwhite round coated tablets with no printed inscription. A placebo tablet (of the same size as the corresponding active tablet) to match elafibranor 80 mg was provided as a white to off-white round coated tablet with no printed inscription. The placebo tablet contained the same excipients as the active formulation as well as lactose monohydrate (which was used in place of the active ingredient). […] The treatment effect estimate was −52.0% (95% Cl [−62.5; −41.5]) for the elafibranor 80 mg treatment group and −43.9% (95% Cl [−55.7; −32.1]) for the elafibranor 120 mg treatment group (FIG. 1). The primary efficacy supportive analysis conducted using an ANCOVA with baseline ALP as a covariate was consistent with the primary efficacy analysis. The treatment effect estimate was −51.4% (95% Cl [−63.3; −39.5]) for the elafibranor 80 mg treatment group and −43.9% (95% Cl [−55.8; −31.9]) for the elafibranor 120 mg treatment group (FIG. 1).

CSc1ccc(C(=O)C=Cc2cc(C)c(OC(C)(C)C(=O)O)c(C)c2)cc1 [elafibranor, 2-(2,6-dimethyl-4-{3-[4-(methylsulfanyl)phenyl]-3-oxopropen-1-yl}phenoxy)-2-methylpropanoic acid]
absolute change from baseline in serum ALP vs placebo at Endpoint (80 mg (p<0.001) and 120 mg treatment groups): statistically significantly different from placebo
relative change from baseline in serum ALP vs placebo at Endpoint (80 mg and 120 mg treatment groups): statistically significantly different from placebo
mean ALP values from baseline through Week 12 (80 mg and 120 mg treatment groups, FIG. 2): declining mean ALP values
mean relative changes (%) in ALP values from baseline through Week 12 (80 mg and 120 mg treatment groups, beginning at Week 2 up through Week 12, FIG. 3): decrease in ALP values over time
treatment effect estimate vs placebo, relative change in serum ALP (supportive analysis) (80 mg, 95% CI [−63.3, −39.5]): −51.4%
treatment effect estimate vs placebo, relative change in serum ALP (primary efficacy analysis) (80 mg, 95% CI [−62.5, −41.5]): −52.0%
treatment effect estimate vs placebo, relative change in serum ALP (supportive analysis) (120 mg, 95% CI [−55.8, −31.9]): −43.9%
treatment effect estimate vs placebo, relative change in serum ALP (primary efficacy analysis) (120 mg, 95% CI [−55.7, −32.1]): −43.9%
reduction in plasma ALP levels from baseline compared to placebo (PBC patients): consistent, statistically significant reduction
mean relative change (%) from baseline to Endpoint in serum ALP (elafibranor 80 mg treatment group, PBC patients): −48.3%
mean relative change (%) from baseline to Endpoint in serum ALP (elafibranor 120 mg treatment group, PBC patients): −40.6%
safety and tolerability in patients (in vivo): safe and well-tolerated
